In patent US20250228239A1, “MOLECULES HAVING PESTICIDAL UTILITY, AND INTERMEDIATES, COMPOSITIONS, AND PROCESSES, RELATED THERETO” (priority 2024, published 2025):
Like-named read-outs stand apart in the source and are kept apart here.

Key:
[1] = test system: Beet Armyworm (Spodoptera exigua, LAPHEG); experiment: Bioassays on Beet Armyworm (BAW), 128-well diet tray assay; type: in vivo; conditions: Spodoptera exigua; for mortality at 50 µg/cm2: 168 h, second instar larvae, 50 μg/cm^2 of test molecule on artificial diet, 25° C., five to seven days, average of eight wells, read-out: BAW % Control (or Mortality) rating
Outline: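 Test molecule was dissolved in 90:10 acetone-water and applied at 50 μg/cm^2 onto artificial diet in eight wells, then dried. Second instar larvae, one to five per well, were added, and trays were kept vented at 25° C. with a 14:10 photoperiod for five to seven days before mortality was recorded.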

[2] = test system: Cabbage Looper (Trichoplusia ni, TRIPNI); experiment: Bioassays on Cabbage Looper (CL), 128-well diet tray assay; type: in vivo; conditions: Trichoplusia ni; for mortality at 50 µg/cm2: 168 h, second instar larvae, 50 μg/cm^2 of test molecule on artificial diet, 25° C., five to seven days, average of eight wells, read-out: CL % Control (or Mortality) rating
Outline: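 Each of eight wells receives artificial diet treated at 50 μg/cm^2 with the test molecule, then one to five second-instar larvae. Incubation runs five to seven days at 25° C with a 14:10 light-dark cycle under vented covers. Mortality is scored per well as a percentage and averaged.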

[3] = Beet Armyworm, Table ABC / ABC-DP rating, read-out: BAW rating
[4] = Cabbage Looper, Table ABC / ABC-DP rating, read-out: CL rating
[5] = Table ABC: Biological Results, species BAW, read-out: BAW
[6] = Table ABC: Biological Results, species CL, read-out: CL

SMILES | pest or weed control at 50 µg/cm2 [1, 3] [%] | pest or weed control at 50 µg/cm2 [2, 4] [%] | mortality at 50 µg/cm2 [1] [%] | mortality at 50 µg/cm2 [2] [%] | pest or weed control at 50 µg/cm2 [1, 5] [%] | pest or weed control at 50 µg/cm2 [2, 6] [%]
O=C(NNc1ccccc1)c1cc(NC(=O)[C@H]2[C@H](c3cc(Cl)cc(Cl)c3)C2(Cl)Cl)ccc1Cl (relative stereo) [F2556, trans-2,2-Dichloro-N-(4-chloro-3-(2-phenylhydrazine-1-carbonyl)phenyl)-3-(3,5-dichlorophenyl)cyclopropane-1-carboxamide] | 50 to 100 | 50 to 100 | – | – | – | –
O=C(NNc1ccc(Cl)c(Cl)c1)c1cc(NC(=O)[C@H]2[C@H](c3cc(Cl)cc(Cl)c3)C2(Cl)Cl)ccc1Cl (relative stereo) [F2560, trans-2,2-Dichloro-N-(4-chloro-3-(2-(3,4-dichlorophenyl)hydrazine-1-carbonyl)phenyl)-3-(3,5-dichlorophenyl)cyclopropane-1-carboxamide] | 50 to 100 | 50 to 100 | – | – | – | –
CC(C)(C)OC(=O)NNC(=O)c1cc(NC(=O)[C@H]2[C@H](c3cc(Cl)cc(Cl)c3)C2(Cl)Cl)ccc1Cl (relative stereo) [F2566, trans-tert-butyl 2-(2-chloro-5-(2,2-dichloro-3-(3,5-dichlorophenyl)cyclopropane-1-carboxamido)benzoyl)hydrazine-1-carboxylate] | 50 to 100 | 50 to 100 | 50 to 100 | 50 to 100 | – | –
O=C(NNC1CCC(F)(F)CC1)c1cc(NC(=O)[C@H]2[C@H](c3cc(Cl)cc(Cl)c3)C2(Cl)Cl)ccc1Cl (relative stereo) [F2569, trans-2,2-dichloro-N-(4-chloro-3-(2-(4,4-difluorocyclohexyl)hydrazine-1-carbonyl)phenyl)-3-(3,5-dichlorophenyl)cyclopropane-1-carboxamide] | 50 to 100 | 50 to 100 | 50 to 100 | 50 to 100 | – | –
O=C(NNCc1ccc(F)cc1)c1cc(NC(=O)[C@H]2[C@H](c3cc(Cl)cc(Cl)c3)C2(Cl)Cl)ccc1Cl (relative stereo) [F2570, trans-2,2-dichloro-N-(4-chloro-3-(2-(4-fluorobenzyl)hydrazine-1-carbonyl)phenyl)-3-(3,5-dichlorophenyl)cyclopropane-1-carboxamide] | 50 to 100 | 50 to 100 | 50 to 100 | 50 to 100 | – | –
O=C(NNc1ccccc1C(F)(F)F)c1cc(NC(=O)[C@H]2[C@H](c3cc(Cl)cc(Cl)c3)C2(Cl)Cl)ccc1Cl (relative stereo) [F2573, trans-2,2-Dichloro-N-(4-chloro-3-(2-(2-(trifluoromethyl)phenyl)hydrazine-1-carbonyl)phenyl)-3-(3,5-dichlorophenyl)cyclopropane-1-carboxamide] | 50 to 100 | 50 to 100 | 50 to 100 | 50 to 100 | – | –
Cc1cccc(N(C)NC(=O)c2cc(NC(=O)[C@H]3[C@H](c4cc(Cl)cc(Cl)c4)C3(Cl)Cl)ccc2Cl)c1 (relative stereo) [F2574, trans-2,2-Dichloro-N-(4-chloro-3-(2-methyl-2-(m-tolyl)hydrazine-1-carbonyl)phenyl)-3-(3,5-dichlorophenyl)cyclopropane-1-carboxamide] | 50 to 100 | 50 to 100 | 50 to 100 | 50 to 100 | – | –
Cc1ccc(NNC(=O)c2cc(NC(=O)[C@H]3[C@H](c4cc(Cl)cc(Cl)c4)C3(Cl)Cl)ccc2Cl)cc1 (relative stereo) [F2575, trans-2,2-Dichloro-N-(4-chloro-3-(2-(p-tolyl)hydrazine-1-carbonyl)phenyl)-3-(3,5-dichlorophenyl)cyclopropane-1-carboxamide] | 50 to 100 | 50 to 100 | 50 to 100 | 50 to 100 | – | –
O=C(NN=Cc1nccs1)c1cc(NC(=O)[C@H]2[C@H](c3cc(Cl)cc(Cl)c3)C2(Cl)Cl)ccc1Cl (relative stereo) [F3006, trans-2,2-Dichloro-N-(4-chloro-3-(2-(thiazol-2-ylmethylene)hydrazine-1-carbonyl)phenyl)-3-(3,5-dichlorophenyl)cyclopropane-1-carboxamide] | 50 to 100 | 50 to 100 | 50 to 100 | 50 to 100 | – | –
O=C(NN=CC1CC1)c1cc(NC(=O)[C@H]2[C@H](c3cc(Cl)cc(Cl)c3)C2(Cl)Cl)ccc1Cl (relative stereo) [F3007, trans-2,2-Dichloro-N-(4-chloro-3-(2-(cyclopropylmethylene)hydrazine-1-carbonyl)phenyl)-3-(3,5-dichlorophenyl)cyclopropane-1-carboxamide] | 50 to 100 | 50 to 100 | 50 to 100 | 50 to 100 | – | –
O=C(Nc1ccc(F)cc1)c1cc(NC(=O)[C@H]2[C@H](c3cc(Cl)cc(Cl)c3)C2(Cl)Cl)ccc1F (single isomer, unassigned) [F1374] | – | – | – | – | 50 to 100 | 50 to 100
O=C(Nc1ccc(F)cc1F)c1cc(NC(=O)[C@H]2[C@H](c3cc(Cl)cc(Cl)c3)C2(Cl)Cl)ccc1F (single isomer, unassigned) [F1375] | – | – | – | – | 50 to 100 | 50 to 100
O=C(Nc1c(F)cc(F)cc1F)c1cc(NC(=O)[C@H]2[C@H](c3cc(Cl)cc(Cl)c3)C2(Cl)Cl)ccc1Cl (single isomer, unassigned) [F1377] | – | – | – | – | 50 to 100 | 50 to 100
O=C(Nc1c(F)cc(F)cc1F)c1cc(NC(=O)[C@@H]2[C@@H](c3cc(Cl)cc(Cl)c3)C2(Cl)Cl)ccc1Cl (single isomer, unassigned) [F1378] | – | – | – | – | 0 to 50 | 50 to 100
Nc1cc(F)c(NC(=O)c2cc(NC(=O)[C@H]3[C@H](c4cc(Cl)cc(Cl)c4)C3(Cl)Cl)ccc2Cl)c(F)c1 [F1027, N-(4-Amino-2,6-difluorophenyl)-2-chloro-5-((1R,3R)-2,2-dichloro-3-(3,5-dichlorophenyl)cyclopropane-1-carboxamido)benzamide] | – | – | – | – | 50 to 100 | 50 to 100
Nc1cc(F)c(NC(=O)c2cc(NC(=O)[C@H]3[C@H](c4ccc(Cl)c(Cl)c4)C3(Cl)Cl)ccc2Cl)c(F)c1 [F1028, N-(4-Amino-2,6-difluorophenyl)-2-chloro-5-((1R,3R)-2,2-dichloro-3-(3,4-dichlorophenyl)cyclopropane-1-carboxamido)benzamide] | – | – | – | – | 50 to 100 | 50 to 100
Nc1cc(F)c(NC(=O)c2cc(NC(=O)[C@H]3[C@H](c4cc(Cl)c(Cl)c(Cl)c4)C3(Cl)Cl)ccc2Cl)c(F)c1 [F1029, N-(4-Amino-2,6-difluorophenyl)-2-chloro-5-((1R,3R)-2,2-dichloro-3-(3,4,5-trichlorophenyl)cyclopropane-1-carboxamido)benzamide] | – | – | – | – | 50 to 100 | 50 to 100
Nc1cc(F)c(NC(=O)c2cc(NC(=O)[C@H]3[C@H](c4ccc(F)c(Cl)c4)C3(Cl)Cl)ccc2Cl)c(F)c1 [F1030, N-(4-Amino-2,6-difluorophenyl)-2-chloro-5-((1R,3R)-2,2-dichloro-3-(3-chloro-4-fluorophenyl)cyclopropane-1-carboxamido)benzamide] | – | – | – | – | 50 to 100 | 50 to 100
CN(C(=O)c1cc(NC(=O)[C@H]2[C@H](c3ccc(Cl)c(Cl)c3)C2(Cl)Cl)ccc1Cl)c1ccc(F)c(N)c1F [F1056, N-(3-Amino-2,4-difluorophenyl)-2-chloro-5-((1R,3R)-2,2-dichloro-3-(3,4-dichlorophenyl)cyclopropane-1-carboxamido)-N-methylbenzamide] | – | – | – | – | 50 to 100 | 50 to 100
O=C(Nc1ccc(F)c(NC(=O)C(Cl)(Cl)Cl)c1F)c1cc(NC(=O)[C@H]2[C@H](c3ccc(Cl)c(Cl)c3)C2(Cl)Cl)ccc1Cl [F1063, 2-Chloro-5-((1R,3R)-2,2-dichloro-3-(3,4-dichlorophenyl)cyclopropane-1-carboxamido)-N-(2,4-difluoro-3-(2,2,2-trichloroacetamido)phenyl)benzamide] | – | – | – | – | 50 to 100 | 50 to 100
Cc1cc(C2C(C(=O)Nc3ccc(Cl)c(C(=O)Nc4ccc(F)c(N)c4F)c3)C2(Cl)Cl)cc(C(F)(F)F)c1F (stereo not drawn) [F1069, cis-N-(3-Amino-2,4-difluorophenyl)-2-chloro-5-((cis)-2,2-dichloro-3-(4-fluoro-3-methyl-5-(trifluoromethyl)phenyl)cyclopropane-1-carboxamido)benzamide] | – | – | – | – | 50 to 100 | 50 to 100
O=C(Nc1cccc(F)c1[N+](=O)[O-])c1cc(NC(=O)[C@H]2[C@H](c3ccc(F)c(Cl)c3)C2(Cl)Cl)ccc1Cl [F1081, 2-Chloro-5-((1R,3R)-2,2-dichloro-3-(3-chloro-4-fluorophenyl)cyclopropane-1-carboxamido)-N-(3-fluoro-2-nitrophenyl)benzamide] | – | – | – | – | 50 to 100 | 50 to 100
Cc1cc(F)c(NC(=O)c2cc(NC(=O)[C@H]3[C@H](c4ccc(F)c(Cl)c4)C3(Cl)Cl)ccc2Cl)cc1[N+](=O)[O-] [F1082, 2-Chloro-5-((1R,3R)-2,2-dichloro-3-(3-chloro-4-fluorophenyl)cyclopropane-1-carboxamido)-N-(2-fluoro-4-methyl-5-nitrophenyl)benzamide] | – | – | – | – | 50 to 100 | 50 to 100
